Legend:
[1] = target: SARS-CoV-2 Main Protease (SARS-CoV-2) (UniProt P0DTD1)
[2] = target: SARS-CoV-2 Main Protease (SARS-CoV-2) (UniProt P0DTD1); remark: listed apart in the source

SMILES	relative solubility at 20 uM	relative solubility at 100 uM	inhibition ([1]; 50.0 µM) [%]	inhibition ([2]; 20.0 µM) [%]	inhibition ([2]; 50.0 µM) [%]	inhibition ([1]; 20.0 µM) [%]
CN(C(=O)C1CCOc2ccc(Cl)cc21)c1ccc(Cl)cn1 (configuration not stated)	0.99	0.98	0	0.542	9.88	–
O=C1C(=O)N(Cc2ccccc2)c2cc(Br)ccc21	0.99	0.59	0	0.852	-0.164	–
Cc1ccc(C)c(S(=O)(=O)N2CCN(C(=O)CCl)CC2)c1	0.99	0.98	96.3	–	101	90.8
O=S(=O)(Cc1ccccc1)Nc1cnccc1N1CCCC1	0.99	0.98	0	1.48	1.38	–
O=C(C1CCN(c2ccncc2)CC1)N1CCS(=O)(=O)CC1	1	1	42.9	–	-27.4	19.7
COc1cc(CNC(=O)Cc2ncc[nH]2)c2ccccc2n1	1	1	15.6	–	-23.1	0
CC(C)N(C)CC1CCN(c2ccc(S(N)(=O)=O)cc2)CC1	1	0.99	0	–	-17.8	0
COc1cccc(NC(=O)Nc2cccc(C#N)c2)c1	0.96	0.94	2.48	5.11	9.79	0
COc1ccccc1OCCN(C)C(=O)c1cc(=O)[nH]c2cc(F)ccc12	1.01	1	0	-3.47	7.57	–
Cc1ccncc1NC(=O)C12CCC(CO1)C2 (configuration not stated)	1.01	1	0	-5.84	9.66	–
COc1ccccc1OCCNC(=O)c1cc(=O)[nH]c2cc(F)ccc12	0.88	0.66	9.64	-6.6	51.7	–
C=CC(=O)N(c1ccc(C(C)(C)C)cc1)C(C(=O)Nc1cccc(F)c1C)c1cccnc1 (configuration not stated)	1	0.98	0	–	-14.8	0
C=CC(=O)N(c1ccc(C(C)(C)C)cc1)C(C(=O)NCC1CCCO1)c1cccnc1 (configuration not stated)	1	0.99	25.6	70.8	44.1	0
O=C(Cn1nnc2ccccc21)NCc1ccc(Oc2cccnc2)c(F)c1	0.99	0.99	–	-21.1	-19.3	0
N#Cc1ccc(NC(=O)Nc2cccnc2)cc1	1	1	–	5.82	11.6	0
CCCSCC(=O)C(C#N)C(=O)Nc1ccccc1F (configuration not stated)	1	1	2.12	–	-9.47	0.68

Reference: the COVID Moonshot data (paper PMC11187573), “Identification of SARS-CoV-2 Mpro inhibitors through deep reinforcement learning for de novo drug design and computational chemistry approaches” (RSC Medicinal Chemistry, 2024)
